In US6420330B1, “Use of quaternary carboxylic acid alkanolamine ester salts as microbicide agents” (Cognis Deutschland GmbH, priority 1997, dated 2002):

Tests used:
Experiment in all cases: DGHM suspension test, microbicidal activity
Format in all cases: cell-based
[1] = system: Candida albicans ATCC 10231
Description: (§1) The microbicidal activity of the quanterary carboxylic acid alkanolamine ester salts used in accordance with the invention was tested against the following selected test germs:
(§2) The effectiveness of the compound to be tested was determined by the suspension test in accordance with the guidelines of the Deutsche Gesellschaft for Hygiene and Mikrobiologie (DGHM). Test solutions containing quatemary carboxylic acid alkanolamine ester salts in the quantities shown in the Tables of 50, 100, 200, 400 and 800 mg/l were prepared using water with a hardness of 17° dH and optionally isopropanol.
(§3) At room temperatures, quantities of 0.1 ml test germ suspension were pipetted into test tubes containing 10 ml of the test solutions described above and mixed. After various contact times of 5, 15, 30 and 60 minutes, 1 ml of material was taken from the test tubes by pipette and transferred to 9 ml inactivator solution (inactivators: 3.0% Tween, 0.3% lecithin, 0.1% histidine). After in activation for at least 5 and at most 30 minutes, the living germ count was determined by plating out onto casein peptone-soybean flour peptone (CaSo)-agar plates. Using a spiral plater, the inactivating mixture was directly plated out onto CaSo-agar. The samples were incubated for 24 to 72 hours at 37° C. and macroscopically evaluated for growth. The destruction time or the residual germ count was determined in this way. The germ count of an unchallenged water control is related to the germ count of the inactivated test solution taking the dilution into account. The higher the value, the better the microbicidal effect. The symbol < means that the logarithmic reductuon factor is below the indicated value or, in the case of the symbol >, above the indicated value. The abbreviation CU stands for “concentration used”.

[2] = system: Pseudomonas aeruginosa ATCC 15442
Description: as §1, §2, §3

[3] = system: Staphylococcus aureus ATCC 6538
Description: as §1, §2, §3

[4] = CU 50 mg/l, contact time 5 mins.
[5] = CU 50 mg/l, contact time 15 mins.
[6] = CU 50 mg/l, contact time 30 mins.
[7] = CU 50 mg/l, contact time 60 mins.
[8] = CU 100 mg/l, contact time 5 mins.
[9] = CU 100 mg/l, contact time 15 mins.
[10] = CU 100 mg/l, contact time 30 mins.
[11] = CU 100 mg/l, contact time 60 mins.
[12] = CU 200 mg/l, contact time 5 mins.
[13] = CU 200 mg/l, contact time 15 mins.
[14] = CU 200 mg/l, contact time 30 mins.
[15] = CU 200 mg/l, contact time 60 mins.
[16] = CU 400 mg/l, contact time 5 mins.
[17] = CU 400 mg/l, contact time 15 mins.
[18] = CU 400 mg/l, contact time 30 mins.
[19] = CU 400 mg/l, contact time 60 mins.
[20] = CU 800 mg/l, contact time 5 mins.
[21] = CU 800 mg/l, contact time 15 mins.
[22] = CU 800 mg/l, contact time 30 mins.
[23] = CU 800 mg/l, contact time 60 mins.

CCCCCCCC(=O)OCC[N+](C)(CCOC(=O)CCCCCCC)CCOC(=O)CCCCCCC.COS(=O)(=O)[O-] [Example 2, methyl triethanolammonium tricaprylic acid ester methosulfate]
logarithmic reduction factor [1, 4]: 3.44 | logarithmic reduction factor [1, 5]: >4.71 | logarithmic reduction factor [1, 6]: >4.82 | logarithmic reduction factor [1, 7]: >4.68 | logarithmic reduction factor [1, 8]: >4.73 | logarithmic reduction factor [1, 9]: >4.71 | logarithmic reduction factor [1, 10]: >4.82 | logarithmic reduction factor [1, 11]: >4.68 | logarithmic reduction factor [1, 12]: >4.73 | logarithmic reduction factor [1, 13]: >4.71 | logarithmic reduction factor [1, 14]: >4.82 | logarithmic reduction factor [1, 15]: >4.68 | logarithmic reduction factor [1, 16]: >4.73 | logarithmic reduction factor [1, 17]: >4.71 | logarithmic reduction factor [1, 18]: >4.82 | logarithmic reduction factor [1, 19]: >4.68 | logarithmic reduction factor [1, 20]: >4.73 | logarithmic reduction factor [1, 21]: >4.71 | logarithmic reduction factor [1, 22]: <4.82 | logarithmic reduction factor [1, 23]: >4.68 | logarithmic reduction factor [2, 4]: <1.38 | logarithmic reduction factor [2, 5]: <1.70 | logarithmic reduction factor [2, 6]: 3.31 | logarithmic reduction factor [2, 7]: 3.98 | logarithmic reduction factor [2, 8]: <1.38 | logarithmic reduction factor [2, 9]: 3.25 | logarithmic reduction factor [2, 10]: 3.75 | logarithmic reduction factor [2, 11]: 4.49 | logarithmic reduction factor [2, 12]: 1.38 | logarithmic reduction factor [2, 13]: 3.95 | logarithmic reduction factor [2, 14]: 4.40 | logarithmic reduction factor [2, 15]: >5.59 | logarithmic reduction factor [2, 16]: 4.08 | logarithmic reduction factor [2, 17]: >5.70 | logarithmic reduction factor [2, 18]: >5.68 | logarithmic reduction factor [2, 19]: >5.59 | logarithmic reduction factor [2, 20]: 4.42 | logarithmic reduction factor [2, 21]: >5.70 | logarithmic reduction factor [2, 22]: >5.68 | logarithmic reduction factor [2, 23]: >5.59 | logarithmic reduction factor [3, 4]: 3.21 | logarithmic reduction factor [3, 5]: >5.38 | logarithmic reduction factor [3, 6]: >5.50 | logarithmic reduction factor [3, 7]: >5.41 | logarithmic reduction factor [3, 8]: 3.54 | logarithmic reduction factor [3, 9]: >5.38 | logarithmic reduction factor [3, 10]: >5.50 | logarithmic reduction factor [3, 11]: >5.41 | logarithmic reduction factor [3, 12]: 4.32 | logarithmic reduction factor [3, 13]: >5.38 | logarithmic reduction factor [3, 14]: >5.50 | logarithmic reduction factor [3, 15]: >5.41 | logarithmic reduction factor [3, 16]: >5.56 | logarithmic reduction factor [3, 17]: >5.38 | logarithmic reduction factor [3, 18]: >5.50 | logarithmic reduction factor [3, 19]: >5.41 | logarithmic reduction factor [3, 20]: >5.56 | logarithmic reduction factor [3, 21]: >5.38 | logarithmic reduction factor [3, 22]: >5.50 | logarithmic reduction factor [3, 23]: >5.41

CCCCCCCCC(=O)OCC[N+](C)(C)CCOC(=O)CCCCCCCC.COS(=O)(=O)[O-] [Example 3, dimethyl diethanolammonium dipelargonic acid ester methosulfate]
logarithmic reduction factor [1, 4]: 2.86 | logarithmic reduction factor [1, 5]: >4.63 | logarithmic reduction factor [1, 6]: >4.66 | logarithmic reduction factor [1, 7]: >4.67 | logarithmic reduction factor [1, 8]: >4.63 | logarithmic reduction factor [1, 9]: >4.63 | logarithmic reduction factor [1, 10]: >4.66 | logarithmic reduction factor [1, 11]: >4.67 | logarithmic reduction factor [1, 12]: >4.63 | logarithmic reduction factor [1, 13]: >4.63 | logarithmic reduction factor [1, 14]: >4.66 | logarithmic reduction factor [1, 15]: >4.67 | logarithmic reduction factor [1, 16]: >4.63 | logarithmic reduction factor [1, 17]: >4.63 | logarithmic reduction factor [1, 18]: >4.66 | logarithmic reduction factor [1, 19]: >4.67 | logarithmic reduction factor [1, 20]: >4.63 | logarithmic reduction factor [1, 21]: >4.63 | logarithmic reduction factor [1, 22]: >4.66 | logarithmic reduction factor [1, 23]: >4.67 | logarithmic reduction factor [2, 4]: <1.59 | logarithmic reduction factor [2, 5]: 2.99 | logarithmic reduction factor [2, 6]: 3.58 | logarithmic reduction factor [2, 7]: 3.77 | logarithmic reduction factor [2, 8]: 4.36 | logarithmic reduction factor [2, 9]: >5.58 | logarithmic reduction factor [2, 10]: >5.67 | logarithmic reduction factor [2, 11]: >5.53 | logarithmic reduction factor [2, 12]: >5.59 | logarithmic reduction factor [2, 13]: >5.58 | logarithmic reduction factor [2, 14]: >5.67 | logarithmic reduction factor [2, 15]: >5.53 | logarithmic reduction factor [2, 16]: >5.59 | logarithmic reduction factor [2, 17]: >5.58 | logarithmic reduction factor [2, 18]: >5.67 | logarithmic reduction factor [2, 19]: >5.53 | logarithmic reduction factor [2, 20]: >5.59 | logarithmic reduction factor [2, 21]: >5.58 | logarithmic reduction factor [2, 22]: >5.67 | logarithmic reduction factor [2, 23]: >5.53 | logarithmic reduction factor [3, 4]: <1.31 | logarithmic reduction factor [3, 5]: 2.31 | logarithmic reduction factor [3, 6]: 3.01 | logarithmic reduction factor [3, 7]: 4.85 | logarithmic reduction factor [3, 8]: <1.31 | logarithmic reduction factor [3, 9]: 3.67 | logarithmic reduction factor [3, 10]: >5.19 | logarithmic reduction factor [3, 11]: >5.55 | logarithmic reduction factor [3, 12]: 2.05 | logarithmic reduction factor [3, 13]: >5.74 | logarithmic reduction factor [3, 14]: >5.19 | logarithmic reduction factor [3, 15]: >5.55 | logarithmic reduction factor [3, 16]: 3.25 | logarithmic reduction factor [3, 17]: >5.74 | logarithmic reduction factor [3, 18]: >5.19 | logarithmic reduction factor [3, 19]: >5.55 | logarithmic reduction factor [3, 20]: 3.78 | logarithmic reduction factor [3, 21]: >5.74 | logarithmic reduction factor [3, 22]: >5.19 | logarithmic reduction factor [3, 23]: >5.55
